In patent EP4582426A1, “PAN-KRAS INHIBITOR COMPOUND” (Adlai Nortye Biopharma Co., Ltd., priority 2022, dated 2024):

Key:
[1] = system: SW480 (G12V); assay: In vitro cell proliferation inhibition test (CellTiter-Glo Luminescent Cell Viability Assay); format: cell-based; settings: SW480 cell line, Large intestine, Colon, KRAS (p.G12V), cells and compounds co-incubated 72 hours
Text: (§1) Due to the diversity of RAS mutations and in order to evaluate the activity of compounds in different RAS mutant cell lines, we selected KRAS^WT, KRAS^G12C, KRAS^G12D), KRAS^G12V and BRAF mutant cell lines (see the table below) for in vitro activity evaluation and screening of compounds .
(§2) Experimental protocol: CellTiter-Glo® Cell Luminescent Viability Assay (Promega)
(§3) According to the doubling time of different cell lines, different numbers of cells (1000-5000 cells/well) were inoculated into 96-well plates containing 180 µl of the corresponding medium, and cultured overnight in a 37°C cell incubator containing 5% CO2. On the second day, the compound to be tested was pre-diluted 3-fold with the medium, the highest concentration was 100 µM, and there were 10 concentration gradients in total; then 20 µl of the medium containing different concentrations of the compound was added to the cells in the 96-well plate to ensure the final concentration of the compound to be up to 10 µM, with 10 concentration gradients of 3-fold dilutions. After co-incubating cells and compounds for 72 hours, the 96-well plate was taken out of the incubator, placed at room temperature for 30 minutes, and then 25 µl CellTiter-Glo® Reagent was added to each well to mix well, and incubated at room temperature for 10 minutes, and then 100 µl of the sample was transferred to a white 96-well plate (OptiPlateTM-96, PerkinElmer), the […] signal value was read using a multi-functional microplate reader (SpectraMax® i3x, Molecular devices). Subsequently, the signal value was standardized, and the four-parameter fitting regression equation was used for curve fitting to calculate the half maximal inhibitory concentration (IC50) of the compound on the cell line. Table 3: Antiproliferative activity of compounds of the present invention on KRAS cell mutants

[2] = system: AsPC-1 (G12D); assay: as above; format: cell-based; settings: AsPC-1 cell line, Pancreas, KRAS (p.G12D), cells and compounds co-incubated 72 hours
Text: as §1, §2, §3

## CCn1c(-c2cc(C#CCN(C)C3CCOCC3)cnc2C(C)OC)c2c3cc(ccc31)-c1csc(n1)CC(NC(=O)C1C(C)C1C)C(=O)N1CCCC(N1)C(=O)OCC(C)(C)C2 [Example 36, (1r,2R,3S)-N-((6^3S,4S,Z)-1^1-ethyl-1^2-(2-((S)-1-methoxyethyl)-5-(3-(methyl(tetrahydro-2H-pyran-4-yl)amino)prop-1-yn-1-yl)pyridin-3-yl)-10,10-dimethyl-5,7-dioxo-6^1,6^2,6^3,6^4,6^5,6^6-hexahydro-1^1H-8-oxa-2(4,2)-thiazola-1(5,3)-indola-6(1,3)-pyridazinacycloundecaphane-4-yl)-2,3-dimethylcyclopropane-1-carboxamide]
[1]
  IC50: 0.54 nM
[2]
  IC50: 0.73 nM

## CCn1c(-c2cc(C#CCN3CCN(C(C)=O)CC3)cnc2C(C)OC)c2c3cc(ccc31)-c1csc(n1)CC(NC(=O)C1C(C)C1C)C(=O)N1CCCC(N1)C(=O)OCC(C)(C)C2 [Example 41, (1r,2R,3S)-N-((6^3S,4S,Z)-1^2-(5-(3-(4-acetylpiperazin-1-yl)prop-1-yn-1-yl)-2-((S)-1-methoxyethyl)pyridin-3-yl)-1^1-ethyl-10,10-dimethyl-5,7-dioxo-6^1,6^2,6^3,6^4,6^5,6^6-hexahydro-1^1H-8-oxa-2(4,2)-thiazola-1(5,3)-indola-6(1,3)-pyridazinacycloundecaphane-4-yl)-2,3-dimethylcyclopropane-1-carboxamide]
[1]
  IC50: 0.65 nM
[2]
  IC50: 0.56 nM

## CCn1c(-c2cc(C#Cc3cnc4c(c3)CN(C)C4)cnc2[C@H](C)OC)c2c3cc(ccc31)-c1csc(n1)C[C@H](NC(=O)[C@H]1C[C@@H]1C)C(=O)N1CCC[C@H](N1)C(=O)OCC(C)(C)C2 [Example 46, (1S,2S)-N-((6^3S,4S,Z)-1^1-ethyl-1^2-(2-((S)-1-methoxyethyl)-5-((6-methyl-6,7-dihydro-5H-pyrrolo[3,4-b]pyridin-3-yl)ethynyl)pyridin-3-yl)-10,10-dimethyl-5,7-dioxo-6^1,6^2,6^3,6^4,6^5,6^6-hexahydro-1^1H-8-oxa-2(4,2)-thiazola-1(5,3)-indola-6(1,3)-pyridazinacycloundecaphane-4-yl)-2-methylcyclopropane-1-carboxamide]
[1]
  IC50: 11.4 nM
[2]
  IC50: 19.5 nM

## CCn1c(-c2cc(C#Cc3cccc4ccn(C)c34)cnc2[C@H](C)OC)c2c3cc(ccc31)-c1csc(n1)C[C@H](NC(=O)[C@H]1C[C@@H]1C)C(=O)N1CCC[C@H](N1)C(=O)OCC(C)(C)C2 [Example 47, (1S,2S)-N-((6^3S,4S,Z)-1^1-ethyl-1^2-(2-((S)-1-methoxyethyl)-5-((1-methyl-1H-indol-7-yl)ethynyl)pyridin-3-yl)-10,10-dimethyl-5,7-dioxo-6^1,6^2,6^3,6^4,6^5,6^6-hexahydro-1^1H-8-oxa-2(4,2)-thiazola-1(5,3)-indola-6(1,3)-pyridazinacycloundecaphane-4-yl)-2-methylcyclopropane-1-carboxamide]
[1]; Homo sapiens
  IC50: 116 nM
[2]; Homo sapiens, ASPC1
  IC50: 456 nM

## CCn1c(-c2cc(C#CC3CCNCC3)cnc2[C@H](C)OC)c2c3cc(ccc31)-c1csc(n1)C[C@H](NC(=O)[C@H]1C[C@@H]1C)C(=O)N1CCC[C@H](N1)C(=O)OCC(C)(C)C2 [Example 48, (1S,2S)-N-((6^3S,4S,Z)-1^1-ethyl-1^2-(2-((S)-1-methoxyethyl)-5-(piperidin-4-ylethynyl)pyridin-3-yl)-10,10-dimethyl-5,7-dioxo-6^1,6^2,6^3,6^4,6^5,6^6-hexahydro-1^1H-8-oxa-2(4,2)-thiazola-1(5,3)-indola-6(1,3)-pyridazinacycloundecaphane-4-yl)-2-methylcyclopropane-1-carboxamide]
[1]
  IC50: 1.7 nM
[2]
  IC50: 5.4 nM

## CCn1c(-c2cc(C#CCN3CCP(C)(=O)CC3)cnc2[C@H](C)OC)c2c3cc(ccc31)-c1csc(n1)C[C@H](NC(=O)[C@H]1C[C@@H]1C)C(=O)N1CCC[C@H](N1)C(=O)OCC(C)(C)C2 [Example 49, (1S,2S)-N-((6^3S,4S,Z)-1^1-ethyl-1^2-(2-((S)-1-methoxyethyl)-5-(3-(4-methyl-4-oxido-1,4-azaphosphinan-1-yl)prop-1-yn-1-yl)pyridin-3-yl)-10,10-dimethyl-5,7-dioxo-6^1,6^2,6^3,6^4,6^5,6^6-hexahydro-1^1H-8-oxa-2(4,2)-thiazola-1(5,3)-indola-6(1,3)-pyridazinacycloundecaphane-4-yl)-2-methylcyclopropane-1-carboxamide]
[1]
  IC50: 9.2 nM
[2]
  IC50: 7.5 nM

## CCn1c(-c2cc(C#CCN3CCC4(CC3)CN(C)C4)cnc2[C@H](C)OC)c2c3cc(ccc31)-c1csc(n1)C[C@H](NC(=O)[C@H]1C[C@@H]1C)C(=O)N1CCC[C@H](N1)C(=O)OCC(C)(C)C2 [Example 50, (1S,2S)-N-((6^3S,4S,Z)-1^1-ethyl-1^2-(2-((S)-1-methoxyethyl)-5-(3-(2-methyl-2,7-diazaspiro[3.5]nonan-7-yl)prop-1-yn-1-yl)pyridin-3-yl)-10,10-dimethyl-5,7-dioxo-6^1,6^2,6^3,6^4,6^5,6^6-hexahydro-1^1H-8-oxa-2(4,2)-thiazola-1(5,3)-indola-6(1,3)-pyridazinacycloundecaphane-4-yl)-2-methylcyclopropane-1-carboxamide]
[1]
  IC50: 15.2 nM
[2]
  IC50: 1.2 nM

## CCn1c(-c2cc(C#CC3CN(C)CCS3(=N)=O)cnc2C(C)OC)c2c3cc(ccc31)-c1csc(n1)CC(NC(=O)C1CC1C)C(=O)N1CCCC(N1)C(=O)OCC(C)(C)C2 [Example 51, (1S,2S)-N-((6^3S,4S,Z)-1^1-ethyl-1^2-(5-(((2S)-1-imino-4-methyl-1-oxido-1λ^6-thiomorpholin-2-yl)ethynyl)-2-((S)-1-methoxyethyl)pyridin-3-yl)-10,10-dimethyl-5,7-dioxo-6^1,6^2,6^3,6^4,6^5,6^6-hexahydro-1^1H-8-oxa-2(4,2)-thiazola-1(5,3)-indola-6(1,3)-pyridazinacycloundecaphane-4-yl)-2-methylcyclopropane-1-carboxamide]
[1]
  IC50: 5.4 nM
[2]
  IC50: 4.5 nM

## CCn1c(-c2cc(C#CCN3CCN(C)CC3)cnc2[C@H](C)OC)c2c3cc(ccc31)-c1csc(n1)C[C@H](NC(=O)[C@H]1[C@H](C)[C@@H]1C)C(=O)N1CCC[C@H](N1)C(=O)OCC(C)(C)C2 [Example 52, (1r,2R,3S)-N-((6^3S,4S,Z)-1^1-ethyl-1^2-(2-((S)-1-methoxyethyl)-5-(3-(4-methylpiperazin-1-yl)prop-1-yn-1-yl)pyridin-3-yl)-10,10-dimethyl-5,7-dioxo-6^1,6^2,6^3,6^4,6^5,6^6-hexahydro-1^1H-8-oxa-2(4,2)-thiazola-1(5,3)-indola-6(1,3)-pyridazinacycloundecaphane-4-yl)-2,3-dimethylcyclopropane-1-carboxamide]
[1]
  IC50: 0.3 nM
[2]
  IC50: 0.24 nM

## CCn1c(-c2cc(C#CCN3CCOCC3)cnc2[C@H](C)OC)c2c3cc(ccc31)-c1csc(n1)C[C@H](NC(=O)C1CC1)C(=O)N1CCC[C@H](N1)C(=O)OCC(C)(C)C2 [Example 54, N-((6^3S,4S,Z)-1^1-ethyl-1^2-(2-((S)-1-methoxyethyl)-5-(3-morpholinoprop-1-yn-1-yl)pyridin-3-yl)-10,10-dimethyl-5,7-dioxo-6^1,6^2,6^3,6^4,6^5,6^6-hexahydro-1^1H-8-oxa-2(4,2)-thiazola-1(5,3)-indola-6(1,3)-pyridazinacycloundecaphane-4-yl)cyclopropanecarboxamide]
[1]
  IC50: 35 nM
[2]
  IC50: 17.3 nM

## CCn1c(-c2cc(C#CC3CCN(CCO)CC3)cnc2C(C)OC)c2c3cc(ccc31)-c1csc(n1)CC(NC(=O)C1CC1C)C(=O)N1CCCC(N1)C(=O)OCC(C)(C)C2 [Example 55, (1S,2S)-N-((6^3S,4S,Z)-1^1-ethyl-1^2-(5-((1-(2-hydroxyethyl)piperidin-4-yl)ethynyl)-2-((S)-1-methoxyethyl)pyridin-3-yl)-10,10-dimethyl-5,7-dioxo-6^1,6^2,6^3,6^4,6^5,6^6-hexahydro-1^1H-8-oxa-2(4,2)-thiazola-1(5,3)-indola-6(1,3)-pyridazinacycloundecaphane-4-yl)-2-methylcyclopropane-1-carboxamide]
[1]
  IC50: 23.3 nM
[2]
  IC50: 3 nM

## CCn1c(-c2cc(C#Cc3cccc4c3ccn4C)cnc2[C@H](C)OC)c2c3cc(ccc31)-c1csc(n1)C[C@H](NC(=O)[C@H]1C[C@@H]1C)C(=O)N1CCC[C@H](N1)C(=O)OCC(C)(C)C2 [Example 56, (1S,2S)-N-((6^3S,4S,Z)-1^1-ethyl-1^2-(2-((S)-1-methoxyethyl)-5-((1-methyl-1H-indol-4-yl)ethynyl)pyridin-3-yl)-10,10-dimethyl-5,7-dioxo-6^1,6^2,6^3,6^4,6^5,6^6-hexahydro-1^1H-8-oxa-2(4,2)-thiazola-1(5,3)-indola-6(1,3)-pyridazinacycloundecaphane-4-yl)-2-methylcyclopropane-1-carboxamide]
[1]
  IC50: 487 nM
[2]
  IC50: 291 nM
